The values that follow come from patent US10526287B2, “LSD1 inhibitors and uses thereof” (Constellation Pharmaceuticals, Inc., priority 2015, dated 2020).

Where a name gives a salt, the structure may show the parent alone.

This experiment concerns the target LSD1 (Homo sapiens, UniProt O60341). As to the kind of experiment: Biochemical assay for LSD1 activity (LSD1 demethylase TR-FRET). To be noted: Table 6; biotinylated H3K4me1 peptide, 50 minutes at room temperature, TR-FRET; read-out: LSD1_Pep_TR-FRET_1.0 (IC50 T50). (In general: TR-FRET usually uses a lanthanide donor and a delayed reading to cut background.)
For orientation: IC50 means the concentration at which inhibition is half-maximal. As to `CC/C(=C\c1ccccc1)[C@@H]1C[C@H]1N[C@H]1CC[C@@H](NCc2ccc(C(=O)O)cc2)CC1` (racemic) [Compound 176, 4-((((trans)-4-(((trans)-2-((E)-1-phenylbut-1-en-2-yl)cyclopropyl)amino)cyclohexyl)amino)methyl)benzoic Acid Dihydrochloride], the IC50 was < 100 nM.
The figure for `CC(C)/C(=C\c1ccccc1)[C@H]1C[C@@H]1N[C@H]1CC[C@H](N)CC1` (racemic) [Compound 178, (trans)-N^1-((trans)-2-(E)-3-methyl-1-phenylbut-1-en-2-yl)cyclopropyl)cyclohexane-1,4-diamine Dihydrochloride] is < 100 nM.
As for `CC(C)/C(=C\c1ccccc1)[C@@H]1C[C@H]1NC1CCN(Cc2ccc(C(=O)O)cc2)CC1` (racemic) [Compound 179, 4-((4-(((trans)-2-((E)-3-methyl-1-phenylbut-1-en-2-yl)cyclopropyl)amino)piperidin-1-yl)methyl)benzoic Acid bis(trifluoroacetic Acid) Salt], the IC50 is < 100 nM.
With `CC/C(=C\c1ccccc1)[C@@H]1C[C@H]1N[C@H]1CC[C@H](NCC(=O)O)CC1` (racemic) [Compound 182, 2-(((trans)-4-(((trans)-2-((E)-1-phenylbut-1-en-2-yl)cyclopropyl)amino)cyclohexyl)amino)acetic acid], the IC50 is < 100 nM.
The result for `CC/C(=C\c1ccccc1)[C@@H]1C[C@H]1N[C@H]1CC[C@@H](NCC(=O)O)CC1` (racemic) [Compound 183, 2-(((cis)-4-(((trans)-2-((E)-1-phenylbut-1-en-2-yl)cyclopropyl)amino)cyclohexyl)amino)acetic Acid] reads < 100 nM; that for `COCC/C(=C\c1ccccc1)[C@@H]1C[C@H]1N[C@H]1CC[C@H](NCC(C)(C)C(=O)O)CC1` (racemic) [Compound 184, 3-(((trans)-4-(((trans)-2-((E)-4-methoxy-1-phenylbut-1-en-2-yl)cyclopropyl)amino)cyclohexyl)amino)-2,2-dimethylpropanoic Acid bis(trifluoroacetic Acid) Salt], < 100 nM; that for `COCC/C(=C\c1ccccc1)[C@@H]1C[C@H]1NC1CCC(NCc2ccc(C(=O)O)nc2)CC1` (mixture of isomers) [Compound 185, 5-((((trans)-4-(((trans)-2-((E)-4-methoxy-1-phenylbut-1-en-2-yl)cyclopropyl)amino)cyclohexyl)amino)methyl)picolinic Acid bis(trifluoroacetic Acid) Salt], < 100 nM.
The figure for `C/C(=C\c1ccccc1)[C@@H]1C[C@H]1NC1CCN(CC(=O)O)CC1` (racemic) [Compound 194, 2-(4-(((trans)-2-((E)-1-phenylprop-1-en-2-yl)cyclopropyl)amino)piperidin-1-yl)acetic Acid Dihydrochloride] is < 100 nM.
The result for `C/C(=C\c1ccccc1)[C@@H]1C[C@H]1NC1CCN(CC(N)=O)CC1` (racemic) [Compound 196, 2-(4-(((trans)-2-((E)-1-phenylprop-1-en-2-yl)cyclopropyl)amino)piperidin-1-yl)acetamide Dihydrochloride] reads < 100 nM; that for `C/C(=C\c1ccccc1)[C@@H]1C[C@H]1NC1CCN(CCC(=O)N(C)C)CC1` (racemic) [Compound 198, N,N-dimethyl-3-(4-(((trans)-2-((E)-1-phenylprop-1-en-2-yl)cyclopropyl)amino)piperidin-1-yl)propanamide Dihydrochloride], < 100 nM.
For `C/C(=C\c1ccccc1)[C@@H]1C[C@H]1NC1CCN(CCC(=O)O)CC1` (racemic) [Compound 199, 3-(4-(((trans)-2-((E)-1-phenylprop-1-en-2-yl)cyclopropyl)amino)piperidin-1-yl)propanoic Acid Dihydrochloride], the IC50 was < 100 nM.
With `C/C(=C\c1ccccc1)[C@@H]1C[C@H]1NC1CCN(Cc2ccc(C(=O)O)nc2)CC1` (racemic) [Compound 200, 5-((4-(((trans)-2-((E)-1-phenylprop-1-en-2-yl)cyclopropyl)amino)piperidin-1-yl)methyl)picolinic Acid Dihydrochloride], the half-inhibitory concentration (IC50) is < 100 nM.
Take `C/C(=C\c1ccccc1)[C@@H]1C[C@H]1NC1CCN(CCO)CC1` (racemic) [Compound 201, 2-(4-(((trans)-2-((E)-1-phenylprop-1-en-2-yl)cyclopropyl)amino)piperidin-1-yl)ethan-1-ol Dihydrochloride]: the IC50 was < 100 nM.
The figure for `C/C(=C\c1ccccc1)[C@@H]1C[C@H]1NC1CCN(Cc2ccc(C(=O)O)cn2)CC1` (racemic) [Compound 203, 6-((4-(((trans)-2-((E)-1-phenylprop-1-en-2-yl)cyclopropyl)amino)piperidin-1-yl)methyl)nicotinic Acid Dihydrochloride] is < 100 nM; for `C/C(=C\c1ccccc1)[C@@H]1C[C@H]1NC1CCN(CCOCC(=O)O)CC1` (racemic) [Compound 204, 2-(2-(4-(((trans)-2-((E)-1-phenylprop-1-en-2-yl)cyclopropyl)amino)piperidin-1-yl)ethoxy)acetic Acid Dihydrochloride] it is > 10000 nM.
The figure for `C/C(=C\c1ccccc1)[C@@H]1C[C@H]1NC1CCN(CCNS(C)(=O)=O)CC1` (racemic) [Compound 205, N-(2-(4-(((trans)-2-(E)-1-phenylprop-1-en-2-yl)cyclopropyl)amino)piperidin-1-yl)ethyl)methanesulfonamide Dihydrochloride] is < 100 nM; for `C/C(=C\c1ccccc1)[C@@H]1C[C@H]1NC1CCN(CCc2ccc(C(=O)O)cc2)CC1` (racemic) [Compound 206, 4-(2-(4-(((trans)-2-((E)-1-phenylprop-1-en-2-yl)cyclopropyl)amino)piperidin-1-yl)ethyl)benzoic Acid Dihydrochloride] it is 100 to 1000 nM; for `CC/C(=C\c1ccccc1)[C@@H]1C[C@H]1NC1CCC(NCc2cnn(CC(=O)O)c2)CC1` (mixture of isomers) [Compound 210, 2-(4-(((4-(((trans)-2-((E)-1-phenylbut-1-en-2-yl)cyclopropyl)amino)cyclohexyl)amino)methyl)-1H-pyrazol-1-yl)acetic Acid Dihydrochloride] it is 100 to 1000 nM.
The figure for `CC/C(=C\c1ccccc1)[C@@H]1C[C@H]1N[C@H]1CC[C@H](N(C)CCC(=O)O)CC1` (racemic) [Compound 212, 3-(methyl((trans)-4-(((trans)-2-((E)-1-phenylbut-1-en-2-yl)cyclopropyl)amino)cyclohexyl)amino)propanoic Acid Dihydrochloride] is < 100 nM.
As for `CC/C(=C\c1ccccc1)[C@@H]1C[C@H]1N[C@H]1CC[C@@H](N(C)CCC(=O)O)CC1` (racemic) [Compound 213, 3-(methyl((cis)-4-(((trans)-2-((E)-1-phenylbut-1-en-2-yl)cyclopropyl)amino)cyclohexyl)amino)propanoic Acid Dihydrochloride], the IC50 lay in the range of 100 to 1000 nM.
On to `CC/C(=C\c1ccccc1)[C@@H]1C[C@H]1N[C@H]1CC[C@H](NCc2ccc(C(=O)O)cc2)CC1` (racemic) [Compound 218, 4-((((trans)-4-(((trans)-2-((E)-1-phenylbut-1-en-2-yl)cyclopropyl)amino)cyclohexyl)amino)methyl)benzoic Acid Dihydrochloride], for which the IC50 is < 100 nM.
